Drawing on US11839613B2, “Pyrimidine derivatives as PGE2 receptor modulators” (IDORSIA PHARMACEUTICALS LTD, priority 2017, dated 2023), this text covers IC50 for 22 compounds.

What is called IC50 is the concentration at which inhibition is half-maximal.

Test [1] concerns the target PTGER2 (EP2) (Homo sapiens (Human), UniProt P43116). The experiment in a line: hEP2 b-arrestin assay (PathHunter HEK 293 PTGER2 b-arrestin cells). It is filed as cell-based. The settings on record: antagonistic activity, beta-arrestin assay; read-out: hEP2 b-arr IC50. The protocol:
Plate is pre-incubated 15 minutes at 37° C. Then five microliters of PGE2 (final conc. 5 μM) are transferred into the assay plate. Plate is incubated 120 minutes at 37° C.
(each concentration is measured in duplicate)

In test [2] the target is PTGER4 (EP4) (Homo sapiens (Human), UniProt P35408). The test is described as follows: cell-based.
Chain of PTGER4 (EP4) (P35408 whole entry): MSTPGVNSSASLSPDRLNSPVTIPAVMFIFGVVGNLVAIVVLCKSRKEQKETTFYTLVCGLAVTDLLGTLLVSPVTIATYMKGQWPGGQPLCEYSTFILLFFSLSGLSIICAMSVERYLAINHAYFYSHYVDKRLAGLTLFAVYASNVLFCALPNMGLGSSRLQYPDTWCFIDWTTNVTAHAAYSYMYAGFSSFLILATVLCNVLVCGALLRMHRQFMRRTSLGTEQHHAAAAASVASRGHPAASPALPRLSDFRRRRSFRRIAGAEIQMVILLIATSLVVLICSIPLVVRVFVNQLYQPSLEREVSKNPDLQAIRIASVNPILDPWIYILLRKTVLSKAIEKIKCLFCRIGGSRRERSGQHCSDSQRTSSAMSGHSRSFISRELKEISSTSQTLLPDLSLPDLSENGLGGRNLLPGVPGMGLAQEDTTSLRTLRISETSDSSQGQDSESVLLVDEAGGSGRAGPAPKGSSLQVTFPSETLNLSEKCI

Chain of PTGER2 (EP2) (P43116 whole entry): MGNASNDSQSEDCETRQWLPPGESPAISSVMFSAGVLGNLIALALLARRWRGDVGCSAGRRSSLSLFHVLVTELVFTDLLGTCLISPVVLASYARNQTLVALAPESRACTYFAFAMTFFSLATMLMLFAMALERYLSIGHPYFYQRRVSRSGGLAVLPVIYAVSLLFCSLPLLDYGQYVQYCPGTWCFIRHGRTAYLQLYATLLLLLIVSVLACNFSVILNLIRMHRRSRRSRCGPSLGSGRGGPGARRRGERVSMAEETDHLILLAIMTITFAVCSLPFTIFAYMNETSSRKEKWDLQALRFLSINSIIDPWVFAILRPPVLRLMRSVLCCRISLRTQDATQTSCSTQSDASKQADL

On to `CCOc1cc2c(cc1CCNc1cc(-c3ccc(CC(=O)O)c(CC(C)C)c3)ncn1)OCCO2` [Example 412, (4-{6-[2-(7-Ethoxy-2,3-dihydro-benzo[1,4]dioxin-6-yl)-ethylamino]-pyrimidin-4-yl}-2-isobutyl-phenyl)-acetic acid], for which the values for the IC50 in test [1] and in test [2] were 20 nM and 40 nM, respectively.
For `CCOc1cc(-c2cc(NCCc3cc4ccsc4c(F)c3OC)ncn2)ccc1CC(=O)O` [Example 406, (2-Ethoxy-4-{6-[2-(7-fluoro-6-methoxy-benzo[b]thiophen-5-yl)-ethylamino]-pyrimidin-4-yl}-phenyl)-acetic acid] the same measures were 45 nM and 62 nM.
In the same order, the values of `COc1cc2c(cc1CCNc1cc(-c3ccc(CC(=O)O)c(OC(C)C)c3)ncn1)OCCO2` [Example 523, (2-Isopropoxy-4-{6-[2-(7-methoxy-2,3-dihydro-benzo[1,4]dioxin-6-yl)-ethylamino]-pyrimidin-4-yl}-phenyl)-acetic acid] are 227 nM and 195 nM.
For the compound `Cc1c(CCNc2cc(-c3ccc(C(=O)O)c(OC4CCC4)c3)ncn2)ccc2ccsc12` [Example 471, 2-Cyclobutoxy-4-{6-[2-(7-methyl-benzo[b]thiophen-6-yl)-ethylamino]-pyrimidin-4-yl}-benzoic acid], the IC50 in test [1] is 207 nM; in test [2], 300 nM.
Take `O=C(O)c1cccc2cc(-c3cc(NCCc4cc(F)c5sccc5c4)ncn3)[nH]c12` [Example 561, 2-{6-[2-(7-Fluoro-benzo[b]thiophen-5-yl)-ethylamino]-pyrimidin-4-yl}-1H-indole-7-carboxylic acid]: the IC50 came out at 388 nM in test [1] and 103 nM in test [2].
In the case of `COc1cc2c(cc1CCNc1cc(-c3ccc(C(=O)O)c(OC(C)C)c3)ncn1)OCCO2` [Example 493, 2-Isopropoxy-4-{6-[2-(7-methoxy-2,3-dihydro-benzo[1,4]dioxin-6-yl)-ethylamino]-pyrimidin-4-yl}-benzoic acid], the IC50 in test [1] came out at 642 nM; in test [2], 497 nM.
As to `CCCc1cc(-c2cc(NCCc3cc4c(cc3OCC)OCCO4)ncn2)ccc1CC(=O)O` [Example 402, (4-{6-[2-(7-Ethoxy-2,3-dihydro-benzo[1,4]dioxin-6-yl)-ethylamino]-pyrimidin-4-yl}-2-propyl-phenyl)-acetic acid], the figures for the IC50 in test [1] and in test [2] were 22 nM and 61 nM, respectively.
Take `O=c1c(O)c(-c2ccc(-c3cc(NCCc4cc(F)c5sccc5c4)ncn3)cc2)c1=O` [Example 536, 3-(4-{6-[2-(7-Fluoro-benzo[b]thiophen-5-yl)-ethylamino]-pyrimidin-4-yl}-phenyl)-4-hydroxy-cyclobut-3-ene-1,2-dione]: the IC50 in test [1] came out at 203 nM; in test [2], 28 nM.
As for `O=C(O)c1ccc(-c2cc(NCCc3cc(F)c4sccc4c3)ncn2)cc1` [Example 496, 4-{6-[2-(7-Fluoro-benzo[b]thiophen-5-yl)-ethylamino]-pyrimidin-4-yl}-benzoic acid], the IC50 in test [1] is 588 nM; in test [2] it was 908 nM.
Regarding `CC(C)Oc1cc(-c2cc(NCCc3cc(F)c4sccc4c3)ncn2)ccc1C(=O)O` [Example 491, 4-{6-[2-(7-Fluoro-benzo[b]thiophen-5-yl)-ethylamino]-pyrimidin-4-yl}-2-isopropoxy-benzoic acid], the IC50 worked out at 372 nM in test [1] and 148 nM in test [2].
In the same order, the values of `CCc1cc(-c2cc(NCCc3cc(F)c4sccc4c3)ncn2)sc1CC(=O)O` [Example 545, (3-Ethyl-5-{6-[2-(7-fluoro-benzo[b]thiophen-5-yl)-ethylamino]-pyrimidin-4-yl}-thiophen-2-yl)-acetic acid] are 394 nM and 25 nM.
As to `O=C(O)c1ccc(-c2cc(NCCc3cc(F)c4sccc4c3)ncn2)cc1F` [Example 554, 2-Fluoro-4-{6-[2-(7-fluoro-benzo[b]thiophen-5-yl)-ethylamino]-pyrimidin-4-yl}-benzoic acid], the IC50 in test [1] was 739 nM; in test [2] it was 884 nM.
Consider `CCOc1cc(-c2cc(NCCc3ccc4ccccc4c3C)ncn2)ccc1Cc1noc(=S)[nH]1` [Example 567, 3-(2-Ethoxy-4-{6-[2-(1-methyl-naphthalen-2-yl)-ethylamino]-pyrimidin-4-yl}-benzyl)-[1,2,4]oxadiazole-5(4H)-thione], for which the values for the half-inhibitory concentration (IC50) in test [1] and in test [2] were 255 nM and 264 nM, respectively.
As for `CCc1cc(-c2cc(NCCc3c(OC)cc4ccccc4c3C)ncn2)ccc1C(=O)O` [Example 446, 2-Ethyl-4-{6-[2-(3-methoxy-1-methyl-naphthalen-2-yl)-ethylamino]-pyrimidin-4-yl}-benzoic acid], the IC50 was 32 nM in test [1] and 108 nM in test [2].
Regarding `CCOc1cc(-c2cc(NCCc3cc(F)c4scc(Cl)c4c3)ncn2)ccc1CC(=O)O` [Example 502, (4-{6-[2-(3-Chloro-7-fluoro-benzo[b]thiophen-5-yl)-ethylamino]-pyrimidin-4-yl}-2-ethoxy-phenyl)-acetic acid], the IC50 in test [1] was determined as 103 nM; in test [2] it was 903 nM.
`CCOc1cc(-c2cc(NCCc3cc(F)c4sccc4c3)ncn2)ccc1-c1cc(O)no1` [Example 550, 5-(2-Ethoxy-4-{6-[2-(7-fluoro-benzo[b]thiophen-5-yl)-ethylamino]-pyrimidin-4-yl}-phenyl)-isoxazol-3-ol]: the IC50 in test [1] turned out to be 371 nM; in test [2] it was 63 nM.
Take `CCCc1cc(-c2cc(NCCc3ccc4sccc4c3F)ncn2)ccc1C(C)C(=O)O` (racemic) [Example 482, rac-2-(4 -{6-[2-(4-Fluoro-benzo[b]thiophen-5-yl)-ethylamino]-pyrimidin-4-yl}-2-propyl-phenyl)-propionic acid]: the IC50 worked out at 444 nM in test [1] and 91 nM in test [2].
In the same order, the values of `CCCc1cc(-c2cc(NCCc3cc(F)c4scc(Cl)c4c3)ncn2)ccc1CC(=O)O` [Example 501, (4-{6-[2-(3-Chloro-7-fluoro-benzo[b]thiophen-5-yl)-ethylamino]-pyrimidin-4-yl}-2-propyl-phenyl)-acetic acid] are 196 nM and 808 nM.
With `CCCc1cc(-c2cc(NCCc3cc(F)c4sccc4c3)ncn2)ccc1C1(C(=O)O)CC1` [Example 557, 1-(4-{6-[2-(7-Fluoro-benzo[b]thiophen-5-yl)-ethylamino]-pyrimidin-4-yl}-2-propyl-phenyl)-cyclopropanecarboxylic acid], the figures for the IC50 in test [1] and in test [2] were 994 nM and 117 nM, respectively.
For the compound `CCCc1cc(-c2cc(NCCc3ccc4sccc4c3)ncn2)ccc1C(C)C(=O)O` (racemic) [Example 481, rac-2-{4-[6-(2-Benzo[b]thiophen-5-yl-ethylamino)-pyrimidin-4-yl]-2-propyl-phenyl}-propionic acid], the IC50 was 328 nM in test [1] and 63 nM in test [2].
For the compound `O=C(O)Cc1ccc(-c2cc(NCCc3ccc4scc(Cl)c4c3)ncn2)cc1OC(F)(F)F` [Example 499, (4-{6-[2-(3-Chloro-benzo[b]thiophen-5-yl)-ethylamino]-pyrimidin-4-yl}-2-trifluoromethoxy-phenyl)-acetic acid], the IC50 in test [1] amounted to 180 nM; in test [2], 169 nM.
As for `CCOc1cc(-c2cc(NCCc3c(OC)cc4ccccc4c3C)ncn2)cc(F)c1CC(=O)O` [Example 374, (2-Ethoxy-6-fluoro-4-{6-[2-(3-methoxy-1-methyl-naphthalen-2-yl)-ethylamino]-pyrimidin-4-yl}-phenyl)-acetic acid], the figures for the IC50 in test [1] and in test [2] were 334 nM and 52 nM, respectively.
